Results: patent US20080146606A1, “NOVEL COMPOUNDS” (priority 2006, published 2008)

System: LPS-induced TNFα production
Experiment: LPS-induced TNFα production in rats
Assay type: in vivo
Details: Rattus norvegicus, po, pretreated orally
Experimental: Male Lewis rats (180-200 g) from Charles River Breeding Laboratories (Portage) ACUC Protocol#05051 were pretreated orally with compound or vehicle. After a determined pretreatment time, the rats were given LPS (lipopolysaccharide from Escherichia coli Serotype 055-B5, Sigma Chemical Co., St Louis, Mo.) 30 μg/rat in 0.5 ml saline, intraperitoneally. The rats were euthanized by CO2 inhalation 90 minutes after the LPS injection and blood samples were collected by cardiac puncture, transferred into heparinized tubes and stored on ice. The blood samples were centrifuged at 2000 rpm for 10 minutes and the plasma collected for analysis by specific ELISA for TNFα levels.
The plasma samples were assayed for TNFα according to manufactures specifications. TNFα levels were expressed as pg/ml. Elisa kits were purchased from R&D Systems Inc. (Rat TNFα Quantikine Kit Catalog#RTA00).

For `O=S(=O)(NCCO)c1ccc(-c2ccnc3[nH]c(C4CC4)cc23)cc1` [Example 145a, 4-(2-Cyclopropyl-1H-pyrrolo[2,3-b]pyridin-4-yl)-N-(2-hydroxyethyl)-benzenesulfonamide], the ED50 was less than 20 mg/kg.
